Test results: patent US9695155B2, “Herbicidal substituted pyrimidinyloxy benzene compounds” (E. I. DU PONT DE NEMOURS AND COMPANY, priority 2013, dated 2017)

Columns and labels:
giant foxtail [1] = assay: Test A preemergence; assay type: in vivo, Setaria faberii; conditions: for Plant response rating, Foxtail, Giant: 0 to 100 scale where 0 is no effect and 100 is complete control; for Foxtail, Giant plant response rating: 500 g ai/ha, 0 to 100 scale, 0 no effect, 100 complete control, approx. 10 days
Procedure, shortened: (§1)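 Greenhouse pot test, loam/sand soil. Formulation: non-phytotoxic solvent mix plus surfactant. Pre: directed spray onto soil after sowing. Post: plants at 1–2 leaf, 2–10 cm. Rated visually vs untreated controls at ~10 d, 0 (no effect) to 100 (complete control).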

barnyardgrass = assay: Test A postemergence; assay type: in vivo, Echinochloa crus-galli
Procedure, shortened: as §1

wheat = assay: Test A postemergence; assay type: in vivo, Triticum aestivum
Procedure, shortened: as §1

sedge, umbrella = assay: Test B flooded paddy test; assay type: in vivo, Cyperus difformis; conditions: Flood, 250 g ai/ha; 0 to 100 scale where 0 is no effect and 100 is complete control
Procedure, shortened: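 Plants at 2-leaf stage; pots flooded to 3 cm above soil and compound applied directly into paddy water, depth held throughout. After 13 to 15 days in greenhouse, visual rating versus controls on 0 (no effect) to 100 (complete control) scale.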

corn = assay: Test C preemergence; assay type: in vivo, Zea mays; conditions: for Corn plant response rating: preemergence; for Plant response rating, Corn: Preemergence, 31 g ai/ha, scale 0 to 100, 0 no effect, 100 complete control
Procedure, shortened: (§2)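 Seeds were sown in loam–sand blend and sprayed preemergence, while plants at 1- to 4-leaf stage (2–18 cm) in peat-based medium received postemergence sprays; test chemicals were formulated in a non-phytotoxic solvent with surfactant. After 13–15 days in a greenhouse, injury was rated visually against controls, 0 (no effect) to 100 (complete control).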

morningglory [2] = assay: Test C preemergence; assay type: in vivo, Ipomoea coccinea; conditions: for Morningglory plant response rating: preemergence; for Plant response rating, Morningglory: Preemergence, 31 g ai/ha, scale 0 to 100, 0 no effect, 100 complete control
Procedure, shortened: as §2

waterhemp = assay: Test C preemergence; assay type: in vivo, Amaranthus rudis; conditions: for Waterhemp plant response rating: preemergence; for Plant response rating, Waterhemp: Preemergence, 31 g ai/ha, scale 0 to 100, 0 no effect, 100 complete control
Description: Seeds of plant species selected from blackgrass (Alopecurus myosuroides), Italian ryegrass (Lolium multiflorum), wheat, winter (winter wheat, Triticum aestivum), galium (catchweed bedstraw, Galium aparine), corn (Zea mays), large (Lg) crabgrass (Digitaria sanguinalis), giant foxtail (Setaria faberii), johnsongrass (Sorghum halepense), lambsquarters (Chenopodium album), morningglory (Ipomoea coccinea), yellow nutsedge (Cyperus esculentus), pigweed (Amaranthus retroflexus), ragweed (common ragweed, Ambrosia elatior), soybean (Glycine max), barnyardgrass (Echinochloa crus-galli), oilseed rape (Brassica napus), waterhemp (common waterhemp, Amaranthus rudis), kochia (Kochia scoparia), wild oat (Avena fatua), surinam grass (Brachiaria decumbens), foxtail, green (green foxtail, Setaria viridis), goosegrass (Eleusine indica), bromegrass, downy (downy bromegrass, Bromus tectorum), nightshade (eastern black nightshade, Solanum ptycanthum), cocklebur (common cocklebur, Xanthium strumarium), cupgrass, woolly (woolly cupgrass, Eriochloa villosa), bermudagrass (Cynodon dactylon), sunflower, (common oilseed sunflower, Helianthus annuus), Russian thistle (Salsola kali), and velvetleaf (Abutilon theophrasti) were planted into a blend of loam soil and sand and treated preemergence with test chemicals formulated in a non-phytotoxic solvent mixture which included a surfactant.
At the same time, plants selected from these crop and weed species and also barley, winter (winter barley, Hordeum vulgare), windgrass (Apera spica-venti), chickweed (common chickweed, Stellaria media), deadnettle (henbit deadnettle, Lamium amplexicaule), and canarygrass (littleseed canarygrass, Phalaris minor) were planted in pots containing Redi-Earth® planting medium (Scotts Company, 14111 Scottslawn Road, Marysville, Ohio 43041) comprising spaghnum peat moss, vermiculite, wetting agent and starter nutrients and treated with postemergence applications of test chemicals formulated in the same manner. Plants ranged in height from 2 to 18 cm (1- to 4-leaf stage) for postemergence treatments. Treated plants and controls were maintained in a greenhouse for 13 to 15 days, after which time all species were compared to controls and visually evaluated. Plant response ratings, summarized in Table C, are based on a scale of 0 to 100 where 0 is no effect and 100 is complete control. A dash (-) response means no test result.

velvetleaf [3] = assay: Test C preemergence; assay type: in vivo, Abutilon theophrasti; conditions: for Velvetleaf plant response rating: preemergence; for Plant response rating, Velvetleaf: Preemergence, 31 g ai/ha, scale 0 to 100, 0 no effect, 100 complete control
Procedure, shortened: as §2

wheat, winter = assay: Test C postemergence; assay type: in vivo, Triticum aestivum; conditions: for Plant response rating, Wheat: Postemergence, scale 0 to 100 (0 no effect, 100 complete control)
Procedure, shortened: as §2

galium = assay: Test C postemergence; assay type: in vivo, Galium aparine; conditions: for Plant response rating, Galium: Postemergence
Procedure, shortened: as §2

giant foxtail [4] = assay: Test C postemergence; assay type: in vivo, Setaria faberii; conditions: for Plant response rating, Foxtail, Giant: Postemergence
Procedure, shortened: as §2

morningglory [5] = assay: Test C postemergence; assay type: in vivo, Ipomoea coccinea; conditions: for Plant response rating, Morningglory: Postemergence, scale 0 to 100 (0 no effect, 100 complete control)
Procedure, shortened: as §2

ragweed = assay: Test C postemergence; assay type: in vivo, Ambrosia elatior; conditions: for Plant response rating, Ragweed: Postemergence, scale 0 to 100 (0 no effect, 100 complete control)
Procedure, shortened: as §2

velvetleaf [6] = assay: Test A postemergence; assay type: in vivo, Abutilon theophrasti; conditions: 500 g ai/ha, 0 to 100 scale where 0 is no effect and 100 is complete control
Procedure, shortened: as §1

[7] = 125 g ai/ha, 0 to 100 scale where 0 is no effect and 100 is complete control
[8] = 500 g ai/ha, 0 to 100 scale where 0 is no effect and 100 is complete control
[9] = 16 g ai/ha, scale 0 to 100 (0 no effect, 100 complete control)
[10] = 62 g ai/ha, scale 0 (no effect) to 100 (complete control)
[11] = 125 g ai/ha, scale 0 (no effect) to 100 (complete control)
[12] = 16 g ai/ha, postemergence, visual rating, scale 0 to 100 (0 no effect, 100 complete control), 13 to 15 days
[13] = 31 g ai/ha, scale 0 to 100 (0 no effect, 100 complete control), 13 to 15 days
[14] = 62 g ai/ha, scale 0 to 100 (0 no effect, 100 complete control)
[15] = 31 g ai/ha, 0 to 100 scale, 0 no effect, 100 complete control

Row | Structure (SMILES) | Plant response rating, Foxtail, Giant (giant foxtail [1]; 125 g ai/ha) | Foxtail, Giant plant response rating (giant foxtail [1]) | Plant response rating, Barnyardgrass (barnyardgrass; [7]) | Plant response rating, Wheat (wheat; [8]) | Plant response rating, Sedge, Umbrella (sedge, umbrella) | Corn plant response rating (corn; [9]) | Corn plant response rating (corn; [10]) | Corn plant response rating (corn; [11]) | Plant response rating, Corn (corn) | Morningglory plant response rating (morningglory [2]; [9]) | Morningglory plant response rating (morningglory [2]; [10]) | Morningglory plant response rating (morningglory [2]; [11]) | Plant response rating, Morningglory (morningglory [2]) | Waterhemp plant response rating (waterhemp; [9]) | Waterhemp plant response rating (waterhemp; [10]) | Waterhemp plant response rating (waterhemp; [11]) | Plant response rating, Waterhemp (waterhemp) | Velvetleaf plant response rating (velvetleaf [3]; [9]) | Velvetleaf plant response rating (velvetleaf [3]; [10]) | Velvetleaf plant response rating (velvetleaf [3]; [11]) | also measured
1 | CCOc1cn(-c2c(Br)cccc2Oc2ncc(Cl)cn2)nn1 [Compound 84] | 70 | 100 | 70 | 80 | 30 | 0 | 0 | 5 | 0 | 0 | 25 | 100 | 10 | 100 | 100 | 100 | 75 | 50 | 85 | 100 | Plant response rating, Barnyardgrass (barnyardgrass; 500 g ai/ha, 0 to 100 scale, 0 no effect, 100 complete control): 100; Plant response rating, Wheat (wheat; [7]): 30; Plant response rating, Velvetleaf (velvetleaf [3]): 60; Plant response rating (0 to 100), Wheat (wheat, winter; 125 g ai/ha, postemergence): 0; Plant response rating, Wheat (wheat, winter; 31 g ai/ha, 13 to 15 days): 0; Plant response rating, Wheat (wheat, winter; 62 g ai/ha): 0; Galium plant response rating (galium; [12]): 60; Plant response rating (0 to 100), Galium (galium; 125 g ai/ha, postemergence): 95; Plant response rating, Galium (galium; [13]): 75; Plant response rating, Galium (galium; [14]): 60; Foxtail, Giant plant response rating (giant foxtail [4]; [12]): 40; Plant response rating (0 to 100), Foxtail, Giant (giant foxtail [4]; 125 g ai/ha, postemergence): 50; Plant response rating, Foxtail, Giant (giant foxtail [4]; [13]): 5; Plant response rating, Foxtail, Giant (giant foxtail [4]; [14]): 5; Plant response rating (0 to 100), Morningglory (morningglory [5]; 125 g ai/ha, postemergence): 85; Plant response rating, Morningglory (morningglory [5]; 31 g ai/ha, 13 to 15 days): 70; Plant response rating, Morningglory (morningglory [5]; 62 g ai/ha): 85; Plant response rating (0 to 100), Ragweed (ragweed; 125 g ai/ha, postemergence): 80; Plant response rating, Ragweed (ragweed; 31 g ai/ha, 13 to 15 days): 10; Plant response rating, Ragweed (ragweed; 62 g ai/ha): 40
2 | Fc1cnc(Oc2cccc(C(F)F)c2-n2cc(Br)cn2)nc1 [Compound 112] | 100 | 100 | 40 | 70 | 85 | 0 | 5 | 20 | 0 | 5 | 65 | 75 | 15 | 90 | 100 | 100 | 98 | 65 | 100 | 100 | Plant response rating, Barnyardgrass (barnyardgrass; [8]): 90; Plant response rating, Velvetleaf (velvetleaf [6]): 100; Plant response rating, Velvetleaf (velvetleaf [3]): 70
3 | N#Cc1cnn(-c2c(CF)cccc2Oc2ncc(F)cn2)c1 [Compound 151] | 100 |  |  |  | 0 | 0 | 15 | 70 | 5 | 0 | 10 | 25 |  | 95 | 100 | 100 |  | 85 | 100 | 100 | Plant response rating, Foxtail, Giant (giant foxtail [1]; 31 g ai/ha, visual, approximately 10 days): 100; Plant response rating, Barnyardgrass (barnyardgrass; [15]): 0; Barnyardgrass plant response rating (barnyardgrass; [7]): 60; Plant response rating, Wheat (wheat; [15]): 20; Wheat plant response rating (wheat; [7]): 30
